Measurements as given in patent US20140356383A1, “ADMINISTRATION OF AN ANTI-GCC ANTIBODY-DRUG CONJUGATE AND A DNA DAMAGING AGENT IN THE TREATMENT OF CANCER” (priority 2013, published 2014).
“And” between values parts separate entries of the source, which are not always exact repeats. Equal values may be shown once.

Assays:
HT29 (WT / vector) cells = assay: Direct cytotoxicity assay (WST), HT29 wild-type / vector cells; assay type: cell-based, human
Method: To measure each antibody's ability to bind, internalize and kill target expressing cells, cytotoxicity assays were performed. In this assay, cells were incubated with various concentrations of the unconjugated primary anti-GCC antibody and a fixed non-toxic concentration of DM1-conjugated anti-human Fc secondary antibody (indirect cytotoxicity) or with various concentrations of toxin conjugated anti-GCC mAb (direct cytotoxicity). Cell viability was measured by WST assay after 4 days incubation.
Auristatin (analog of dolastatin 10) and maytansine class toxins were evaluated as ADCs with anti-GCC mAb. These toxins are all inhibitors of microtubule polymerization, acting as anti-mitotics.
The 5F9-auristatin toxin conjugates were tested in direct cytotoxicity assays of a variety of cells which been transfected with GCC nucleic acid and selected for expression of GCC. […] As a negative control, antibody drug conjugates were also made with sc209 antibody, which is a human IgG1 monoclonal antibody raised against an unrelated target, with no reactivity to GCC.

293 GCC#2 tumors = assay: Efficacy study with auristatin conjugates in 293 GCC#2 tumors, q7d×4; assay type: in vivo, SCID mice; settings: for T/C: treatment/control
Method: 293 GCC#2 tumor-bearing SCID mice were treated with 5F9 conjugates with vc MMAE, vcMMAF or mcMMAF at three doses in comparison with 209 conjugates of these toxins or with free toxins or vehicle control. Doses were administered iv on a q7d×4 schedule. Tumors were harvested at days 3, 7, 10, 13 and 17. […] Table 18 provides a summary of the results (TGI=tumor growth inhibition, T/C=treatment/control, TGD=tumor growth delay, CR/PR=complete response/partial response; p value=measure to judge statistical significance, NS=not significant).

[1] = tested on: 293 GCC#2 tumor xenograft; assay: 5F9 vcMMAE single agent efficacy in 293 GCC#2 xenograft (Example 5); assay type: in vivo, SCID mice; settings: dose 1.875-7.5 mg/kg, QW, T/C=volume of tumor/control
PHTX-17c s.c. xenograft = assay: MLN0264 and CPT-11 in PHTX-17C s.c. xenografts (Study CPGC-11-EF06); assay type: in vivo, CB-17 SCID mice
Method: (§1) Tumor volume was calculated using the formula: […]

[2] = tested on: PHTX-215 Pa primary human pancreatic tumor xenograft; assay: Single-agent 5F9 vcMMAE in PHTX-215 Pa pancreatic xenograft; assay type: in vivo, mice
Text: (§2) The purpose of this study was to evaluate in vivo anti-tumor activity induced by combined administration of the 5F9 vcMMAE immunoconjugate (sometimes referred to herein as “MLN0264”) and gemcitabine in mouse xenograft primary human tumor explants (PHTX models of pancreatic cancer. These models included tumor tissue from patients with wild-type and mutant KRAS. Five pancreatic PHTX were generated by Champions Oncology (Hackensack, N.J.) using their CTG platform. 2 PHTX models were developed in-house. GCC expression was evaluated in each of the 7 PHTX models using the automated IHC assay described above.
(§3) In vivo anti-tumor studies of single-agent 5F9 vcMMAE immunoconjugate was conducted in all seven of the pancreatic subcutanreous xenograft mouse models. Animals were administered vehicle, free MMAE at 0.135 mg/kg once weekly (QW), a non-GCC targeting ADC at 7.5 mg/kg QW, or 5F9 vcMMAE at 3.75 or 7.5 mg/kg QW. The results for single agent activity of the immunoconjugate in PHTX-215 Pa and PHTX-249 Pa models is shown in FIGS. 15A and 15B, respectively.

[3] = tested on: CTG pancreatic PHTX models (Champions Oncology); assay: Single-agent 5F9 vcMMAE in Champions CTG pancreatic PHTX models; assay type: in vivo, mice
Text: as §2, §3

[4] = tested on: PHTX-249 Pa s.c. xenograft; assay: 5F9 vcMMAE and gemcitabine in PHTX-249 Pa s.c. xenografts (Study CPGC-13-EF05); assay type: in vivo, CB-17 SCID mice; settings: group A: MLN0264 7.5 mg/kg QW; reference vehicle
Method: (§4) Day D0 was the first day of treatment.
as §1
(§5) A negative dAUC is interpreted as an increase in AUC relative to the reference. It is important to evaluate not only the P value, but also the dAUC. Comparisons with significant P values, but small dAUC values, may not be of interest.

[5] = tested on: PHTX-249 Pa s.c. xenograft; assay: 5F9 vcMMAE and gemcitabine in PHTX-249 Pa s.c. xenografts (Study CPGC-13-EF08); assay type: in vivo, CB-17 SCID mice
Method: 264.4 ul stock Gemcitabine into 3135.6 ul NS.
as §4, §1, §5

[6] = tested on: PHTX-215 Pa s.c. xenograft; assay: 5F9 vcMMAE and gemcitabine in PHTX-215 Pa s.c. xenografts (Study CPGC-13-EF10); assay type: in vivo, CB-17 SCID mice; settings: PHTX-215 Pa s.c. xenograft, CB-17 SCID mice, reference vehicle
Method: as §4, §1
Table 77A the annotation table for group symbols. […] A negative dAUC is interpreted as an increase in AUC relative to the reference. It is important to evaluate not only the P value, but also the dAUC. Comparisons with significant P values, but small dAUC values, may not be of interest.

PHTX-09c s.c. xenograft [7] = assay: 5F9 vcMMAE and CPT-11 in PHTX-09C s.c. xenografts (Study CPGC-11-EF07); settings: for Days to 1000 mm^3 / Mean tumor volume ± S.E.M (mm3) / T/C / TGI: PHTX-09c
Method: (§6) The endpoints for each treatment group was either a) tumor volume reaches 10% body weight; or b) body weight loss of >20%. The projected tumor volume at the study initiation date was 200 mm^3.
Not greater than one day prior to dosing, all animals were weighed to the nearest gram and grouped. Dosing solutions were vortexed prior to each administration to ensure correct delivery of compound. Animals received approximately 0.1 ml doses administered I.V. using a 1 cc syringe, 25-30 gauge, ½-¾ inch in length. Animals were dosed based on an average body weight of 20 grams.
(§7) Tumor volume measurements were obtained twice per week using Vernier calipers (0.01 mm). Tumor volume was calculated using the formula:
Efficacy was evaluated in terms of % tumor growth inhibition (TGI) and tumor growth delay (TGD). TGI was assessed on an arbitrary day (when the maximum tumor volume (MTV of the control treatment group reaches the maximum allowable tumor volume), using the following formula:
(§8) TGD was assessed by calculating T−C, where T=mean time (in days) for treatment group tumors to reach a predetermined size, and where C=mean time (in days) for the control group tumors to reach a predetermined size (e.g., 1,000 mm^3).
To compare pairs of treatment groups, the following mixed-effects linear regression model was fit to the data using the maximum likelihood method:
The −2 log likelihood of the full model was compared to one without any treatment terms (reduced model) and the difference in the values was tested using a Chi-squared test. The degrees of freedom of the test were calculated as the difference between the degrees of freedom of the full model and that of the reduced model. The predicted differences in the log tumor values (Yijk−Yi0k, which can be interpreted as log10 (fold change from day 0)) were taken from the above models to calculate mean AUC values for each treatment group. A dAUC value was then calculated as:
For synergy analyses, the observed differences in the log tumor values were used to calculate AUC values for each animal. […] The AUC for the control, or vehicle, group was calculated using the predicted values from the pairwise models described above. To address the question of whether the effects of the combination treatments were synergistic, additive, or sub-additive relative to the individual treatments, the following statistics were calculated:
where Ak and Bk are the k^th animal in the individual treatment groups and ABk is the k^th animal in combination treatment group. AUCctl is the model-predicted AUC for the control group and was treated as a constant with no variability. […] The standard error of the synergy score was calculated as the square root of the sum of squared standard errors across groups A, B, and AB. The degrees of freedom were estimated using the Welch-Satterthwaite equation. P values were calculated by dividing the synergy score by its standard error and tested against a t-distribution (two-tailed) with the above-calculated degrees of freedom.

PHTX-09c s.c. xenograft [8] = assay: 5F9 vcMMAE and cisplatin in PHTX-09c s.c. xenografts (Study CPGC-11-EF05); settings: reference vehicle
Method: as §6
Not greater than one day prior to dosing, all animals were weighed to the nearest gram and grouped. Dosing solutions were vortexed prior to each administration to ensure correct delivery of compound. Animals received approximately 0.1 ml doses administered I.V. using a 1 cc syringe, 27-30 gauge, ½-¾ inch in length.
as §7
Efficacy was evaluated in terms of % tumor growth inhibition (TGI) and tumor growth delay (TGD); the difference in days for treated vs. control tumors to reach final study volume).
TGI was assessed on an arbitrary day (when the maximum tumor volume (“MTV” of the control treatment group reaches the maximum allowable tumor volume), using the following formula:
as §8
The predicted differences in the log tumor values (Yijk−Yi0k, which can be interpreted as log10 (fold change from day 0)) were taken from the above models to calculate mean AUC values for each treatment group. A dAUC value was then calculated as:
For synergy analyses, the observed differences in the log tumor values were used to calculate AUC values for each animal. […] The AUC for the control, or vehicle, group was calculated using the predicted values from the pairwise models described above. A measure of synergy was defined as follows:
where Ak and Bk are the k^th animal in the individual treatment groups and ABk is the k^th animal in combination treatment group. […] The standard error of the synergy score was calculated as the square root of the sum of squared standard errors across groups A, B, and AB. […]

[9] = group A: MLN0264 7.5 mg/kg QW, reference vehicle

5F9 vcMMAE: 5F9 mAb conjugated to MMAE using a vc (Val-Cit) linker; average drug loading about 3.6
LD 50 (HT29 (WT / vector) cells; HT29, auristatin ADCs): 0.93 nM
LD 50 (HT29 (WT / vector) cells; HT 29 WT, auristatin ADCs): 84 nM
TGI (293 GCC#2 tumors; 75 μg/kg iv q7d×4): 54.5
T/C (293 GCC#2 tumors; 75 μg/kg iv q7d×4): 0.45
TGD (293 GCC#2 tumors; 75 μg/kg iv q7d×4, tumor growth delay): 4.4
TGI (293 GCC#2 tumors; 150 μg/kg iv q7d×4): 83.5
T/C (293 GCC#2 tumors; 150 μg/kg iv q7d×4): 0.17
TGI (293 GCC#2 tumors; 300 μg/kg iv q7d×4): 96.9
T/C (293 GCC#2 tumors; 300 μg/kg iv q7d×4): 0.03
T/C [1]: 0.03
Days to 1000 mm^3 (PHTX-17c s.c. xenograft; PHTX-17c, ML0264 7.5 mg/kg QW): >17 days
Mean tumor volume ± S.E.M (mm3) (PHTX-17c s.c. xenograft; PHTX-17c, ML0264 7.5 mg/kg QW): 886.1 ± 187.9 mm3
T/C (PHTX-17c s.c. xenograft; PHTX-17c, ML0264 7.5 mg/kg QW): 0.49
TGI (PHTX-17c s.c. xenograft; PHTX-17c, ML0264 7.5 mg/kg QW): 51%
dAUC (PHTX-17c s.c. xenograft; [9]): 28.9%
tumor regressions (animals) ([2]; PHTX-215 Pa (KRAS wt), 7.5 mg/kg QW): 3 out of 8
tumor growth inhibition ([2]; PHTX-215 Pa, 7.5 mg/kg QW, by day 22): significantly great tumor growth inhibition (TGI) versus free MMAE
TGI, % ([2]; single agent, model PHTX-215, KRAS wild-type, QWx3, day 21): 79%
TGI, % ([3]; model CTG-0300, KRAS Mut G12V, QWx5, day 28): 64%
TGI, % ([3]; model CTG-0301, KRAS wild-type, QWx3, day 21): 24%
TGI, % ([3]; model CTG-0302, KRAS Mut G12R, QWx3, day 21): 36%
TGI, % ([3]; model CTG-0303, KRAS wild-type, QWx5, day 38): 45%
TGI, % ([3]; model CTG-0492, KRAS Mut G12V, QWx3, day 21): 62%
dAUC [4]: 26.4%
tumor regressions (animals) ([5]; PHTX-249 Pa (Studies CPGC-13-EF05/EF08), 5F9 vcMMAE 7.5 mg/kg, gemcitabine 15 mg/kg on days 1 and 3, alone or combined): no tumor regressions
dAUC [5, 9]: 28.9%
dAUC (percent decrease in treatment AUC relative to reference group V, vehicle) ([6]; group A: MLN0264 3.75 mg/kg IV QW): 36.3%
dAUC (percent decrease in treatment AUC relative to reference group V, vehicle) ([6]; group B: MLN0264 7.5 mg/kg IV QW): 75.1%
single agent activity (PHTX-09c s.c. xenograft [7]; PHTX-09c (FIGS. 8B and 8C)): strong
Days to 1000 mm^3 (PHTX-09c s.c. xenograft [7]; ML0264 1.875 mg/kg i.v. QW ×3): >23 days
Mean tumor volume ± S.E.M (mm3) (PHTX-09c s.c. xenograft [7]; ML0264 1.875 mg/kg i.v. QW ×3): 888.5 ± 126.2 mm3
T/C (PHTX-09c s.c. xenograft [7]; ML0264 1.875 mg/kg i.v. QW ×3): 0.82
TGI (PHTX-09c s.c. xenograft [7]; ML0264 1.875 mg/kg i.v. QW ×3): 18.1%
Days to 1000 mm^3 (PHTX-09c s.c. xenograft [7]; ML0264 3.75 mg/kg i.v. QW ×3): >23 days
Mean tumor volume ± S.E.M (mm3) (PHTX-09c s.c. xenograft [7]; ML0264 3.75 mg/kg i.v. QW ×3): 861.1 ± 155.9 mm3
T/C (PHTX-09c s.c. xenograft [7]; ML0264 3.75 mg/kg i.v. QW ×3): 0.79
TGI (PHTX-09c s.c. xenograft [7]; ML0264 3.75 mg/kg i.v. QW ×3): 20.6%
dAUC (PHTX-09c s.c. xenograft [7]; Treated group A (ML0264 1.875 mg/kg) vs reference V (vehicle), percent decrease in AUC): 16.1%
dAUC (PHTX-09c s.c. xenograft [7]; Treated group B (ML0264 3.75 mg/kg) vs reference V (vehicle)): 25.4%
dAUC (PHTX-09c s.c. xenograft [8]; group A: MLN0264 1.875 mg/kg IV QW x3): 17.8%
dAUC (PHTX-09c s.c. xenograft [8]; group B: MLN0264 3.75 mg/kg IV QW x3, 3.75 mg/kg): 28.4% and 44.8%
